According to patent US8338599B2, “Compounds having a potentiating effect on the activity of ethionamide and uses thereof” (priority 2006, dated 2012):
≈ marks a conversion by molar mass, not a printed value. Where “and” joins values, the source holds several entries; their conditions need not be identical. Equal entries are not always repeated.

What was measured:
M. bovis BCG = format: cell-based, M. bovis BCG 1173P2; conditions: from MIC of ETH alone (6 μM) and MIC of ETH with 25 μM compound
[1] = Measurement of the solubility (PBS pH 7.4 vs methanol, LC/MS); format: physicochemical; conditions: pH 7.4, aqueous buffer, kinetic from dmso stock
Method: e) Measurement of the Solubility of the Compounds of the Invention
40 μl of a solution containing a compound of the invention at a concentration of 10 mM in DMSO were diluted in 1.960 ml of methanol, and another 40 μl were diluted in 1.960 ml of a PBS solution containing 675 mM of NaCl, 13.5 mM of KCl, 50 mM of Na2HPO4.2H2O and 10 mM of KH2PO4 at a pH of 7.4. The two solutions were stirred for 24 hours at room temperature, and then centrifuged for 5 minutes and filtered through 0.45 μm filters. 20 μl of each solution were then diluted in 118 μl of methanol and analyzed by liquid chromatography coupled to mass spectrometry (LC/MS). The solubility was determined by the ratio of the areas under the curve of the mass signal for the compound of the invention, according to the following equation: […]

EthR protein [2] = target: T1, EthR protein (Mycobacterium tuberculosis, UniProt P9WMC1); assay: In vitro measurement of the IC50 (EthR/DNA binding, BIAcore); design: species or system M. tuberculosis H37Rv
Method: b) In Vitro Measurement of the IC50 of the Compounds of the Invention.
The in vitro measurement of this datum was performed according to the same principle as for the measurement of inhibition of the EthR/DNA binding using the BIAcore technique.
The specific interaction between EthR and the specific 106-bp DNA fragment was measured on a range of six concentrations of the compounds of the invention, this range extending from 0.11 μM to 27 μM. The IC50 values are then extrapolated from the sigmoid curves obtained.

M. tuberculosis H37Rv [3] = assay: Ethionamide-potentiating effect, fluorimetric detection on Bactec MGIT 960; format: cell-based
EthR protein [4] = target: T1, EthR protein; assay: Inhibition of interaction of EthR with its target DNA sequence (BIAcore); format: binding, M. tuberculosis H37Rv; conditions: for inhibition at 3 µM: compound 3 μM, EthR 540 nM, 37° C.
Method: a) Measurement of the Activity of the Compounds on the Inhibition of Interaction of EthR with its Target DNA Sequence
The in vitro measurements of inhibition of binding of the EthR protein to its target DNA sequence were performed on a machine of BIAcore®2000 type (AB, Uppsala, Sweden).
The chips used are CM5 chips sold by the company GE Healthcare. Both the channels of a chip were activated with a solution containing 200 mM of EDC(N-ethyl-N′-(3-[…])carbodiimide) and 50 mM of NHS (N-hydroxysuccinimide). Next, streptavidin (500 ng/μl in a solution containing 10 mM of sodium acetate (pH 3.5) was injected over 12 minutes at a flow rate of 10 μl/minute. The 106-base-pair biotinylated DNA fragment corresponding to the ethA-R intergene region was deposited on one of the two channels of the chip at a rate of 200 ng/ml in order to obtain stable binding of streptavidin corresponding to 50 RU (resonance units). This DNA fragment was obtained by PCR using the chromosomal DNA of M. tuberculosis H37Rv as matrix and O-270: 5′-[…]-3′ (SEQ ID: No. 1) and O-271: 5′-biotin-[…]-3′ (SEQ ID: No. 2). The second channel was functionalized with a 113-base-pair biotinylated DNA fragment (fragment +14 to +127 of the bla gene of E. coli PCR-amplified using the following oligonucleotides: O-343: 5′-[…]-3′ (SEQ ID: No. 3) and O-344: 5′-biotin-[…]-3′ (SEQ ID: No. 4).
Measurement of the binding of the EthR protein to the immobilized DNA was performed at 37° C. in a reference buffer containing 10 mM of Tris-HCl (pH=7.5), 200 mM of NaCl, 0.1 mM of EDTA, 1 mM of DTT and 1% of DMSO at a flow rate of 20 μl/minute. The specific interaction (SI) of EthR with the 106-base-pair double-stranded DNA sequence, expressed in resonance units, corresponds to the difference in signal observed between the two channels.
For each inhibition measurement, the compounds of the invention are dissolved in the reference buffer at a concentration of 3 μM. The compounds of the invention are then incubated in the presence of the protein (540 nM) at 37° C. for 5 minutes, and each solution is then injected onto the two channels of the chip for 3 minutes at a flow rate of 20 μl/minute. The inhibition values are calculated at the end of the injection according to the following equation: […]
in which SIEthR corresponds to the value measured without ligand and SIEthR+ligand corresponds to the value measured in the presence of to ligand.

M. tuberculosis H37Rv [5] = assay: Ethionamide-potentiating effect, RIA detection method on Bactec 460 in 12B medium; format: cell-based; conditions: with 25 μM of compound
[6] = test system: Mycobacterium tuberculosis bacilli (strain H37RV); assay: Agar gel well test of ETH potentiation in Petri dishes; format: cell-based
[7] = strain 1%, no ETH, ligand 25 μM
[8] = strain 100%, ETH 0.025 μg/mL + ligand 25 μM
[9] = strain 100%, ETH 0.05 μg/mL + ligand 25 μM
[10] = strain 100%, ETH 0.1 μg/mL + ligand 25 μM
[11] = strain 100%, ETH 0.25 μg/mL + ligand 25 μM
[12] = strain 100%, no ETH, ligand 25 μM

T1 sequence (P9WMC1 whole entry, looked up): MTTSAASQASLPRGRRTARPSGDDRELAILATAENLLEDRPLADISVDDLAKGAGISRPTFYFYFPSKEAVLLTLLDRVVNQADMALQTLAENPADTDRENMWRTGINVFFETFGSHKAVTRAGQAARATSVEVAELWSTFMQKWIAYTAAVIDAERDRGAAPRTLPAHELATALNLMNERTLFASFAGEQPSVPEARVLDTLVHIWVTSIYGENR

With O=C(Cc1cccs1)N1CCC(c2nc(-c3cccs3)no2)CC1 [Compound 43, 2-thiophen-2-yl-1-[4-(3-thiophen-2-yl[1,2,4]oxadiazol-5-yl)piperid-1-yl]ethanone] the Potentiation % (M. bovis BCG) was 2500%, the solubility at 24 h [1] was 26.9 µg/mL (≈ 74.8 µM) and the IC50 (EthR protein [2]) was 520 nM. The “bacterial growth-inhibiting properties of the compound alone” value (M. tuberculosis H37Rv [3]; 25 μM, no ETH (lines A5 and D3)) was “absence of bacterial growth-inhibiting properties”, the MIC (M. tuberculosis H37Rv [3]; Mycobacterium tuberculosis, H37RV, compound 25 μM, read-out: MIC for ETH in the presence of compound) was < 0.025 µg/mL and < 0.15 µM and the “potentiation of the ethionamide activity (factor)” value (M. tuberculosis H37Rv [3]; compound 25 μM) was at least 40 fold. For the same compound, the “potentiation of the ethionamide activity (factor)” value (M. tuberculosis H37Rv [3]; compound 25 μM, listed as compound 43) was “about 40 fold”, the State (M. tuberculosis H37Rv [3]; [7]) was “R” and the “fluorescence reading D + 0” value (M. tuberculosis H37Rv [3]; [7]) was 0. For the same compound, the “fluorescence reading D + 1” value (M. tuberculosis H37Rv [3]; [7]) was 0, the “fluorescence reading D + 5 (first column, c6)” value (M. tuberculosis H37Rv [3]; [7]) was 0 and the “fluorescence reading D + 5 (second column, c7)” value (M. tuberculosis H37Rv [3]; [7]) was 0. For the same compound, the “fluorescence reading D + 6” value (M. tuberculosis H37Rv [3]; [7]) was 0, the “fluorescence reading D + 7 (first column, c9)” value (M. tuberculosis H37Rv [3]; [7]) was 168 and the “fluorescence reading D + 7 (second column, c10)” value (M. tuberculosis H37Rv [3]; [7]) was 292. The “fluorescence reading J + 8” value (M. tuberculosis H37Rv [3]; [7]) was 400, the State (M. tuberculosis H37Rv [3]; [8]) was “S” and the “fluorescence reading D + 0” value (M. tuberculosis H37Rv [3]; [8]) was 0. The “fluorescence reading D + 1” value (M. tuberculosis H37Rv [3]; [8]) was 0, the “fluorescence reading D + 5 (first column, c6)” value (M. tuberculosis H37Rv [3]; [8]) was 0 and the “fluorescence reading D + 5 (second column, c7)” value (M. tuberculosis H37Rv [3]; [8]) was 0. The “fluorescence reading D + 6” value (M. tuberculosis H37Rv [3]; [8]) was 0, the “fluorescence reading D + 7 (first column, c9)” value (M. tuberculosis H37Rv [3]; [8]) was 0 and the “fluorescence reading D + 7 (second column, c10)” value (M. tuberculosis H37Rv [3]; [8]) was 0. For the same compound, the “fluorescence reading J + 8” value (M. tuberculosis H37Rv [3]; [8]) was 0, the State (M. tuberculosis H37Rv [3]; [9]) was “S” and the “fluorescence reading D + 0” value (M. tuberculosis H37Rv [3]; [9]) was 0. For the same compound, the “fluorescence reading D + 1” value (M. tuberculosis H37Rv [3]; [9]) was 0, the “fluorescence reading D + 5 (first column, c6)” value (M. tuberculosis H37Rv [3]; [9]) was 0 and the “fluorescence reading D + 5 (second column, c7)” value (M. tuberculosis H37Rv [3]; [9]) was 0. For the same compound, the “fluorescence reading D + 6” value (M. tuberculosis H37Rv [3]; [9]) was 0, the “fluorescence reading D + 7 (first column, c9)” value (M. tuberculosis H37Rv [3]; [9]) was 0 and the “fluorescence reading D + 7 (second column, c10)” value (M. tuberculosis H37Rv [3]; [9]) was 0. For the same compound, the “fluorescence reading J + 8” value (M. tuberculosis H37Rv [3]; [9]) was 0, the State (M. tuberculosis H37Rv [3]; [10]) was “S” and the “fluorescence reading D + 0” value (M. tuberculosis H37Rv [3]; [10]) was 0. For the same compound, the “fluorescence reading D + 1” value (M. tuberculosis H37Rv [3]; [10]) was 0, the “fluorescence reading D + 5 (first column, c6)” value (M. tuberculosis H37Rv [3]; [10]) was 0 and the “fluorescence reading D + 5 (second column, c7)” value (M. tuberculosis H37Rv [3]; [10]) was 0. For the same compound, the “fluorescence reading D + 6” value (M. tuberculosis H37Rv [3]; [10]) was 0, the “fluorescence reading D + 7 (first column, c9)” value (M. tuberculosis H37Rv [3]; [10]) was 0 and the “fluorescence reading D + 7 (second column, c10)” value (M. tuberculosis H37Rv [3]; [10]) was 0. For the same compound, the “fluorescence reading J + 8” value (M. tuberculosis H37Rv [3]; [10]) was 0, the State (M. tuberculosis H37Rv [3]; [11]) was “S” and the “fluorescence reading D + 0” value (M. tuberculosis H37Rv [3]; [11]) was 0. For the same compound, the “fluorescence reading D + 1” value (M. tuberculosis H37Rv [3]; [11]) was 0, the “fluorescence reading D + 5 (first column, c6)” value (M. tuberculosis H37Rv [3]; [11]) was 0 and the “fluorescence reading D + 5 (second column, c7)” value (M. tuberculosis H37Rv [3]; [11]) was 0. For the same compound, the “fluorescence reading D + 6” value (M. tuberculosis H37Rv [3]; [11]) was 0, the “fluorescence reading D + 7 (first column, c9)” value (M. tuberculosis H37Rv [3]; [11]) was 0 and the “fluorescence reading D + 7 (second column, c10)” value (M. tuberculosis H37Rv [3]; [11]) was 0. For the same compound, the “fluorescence reading J + 8” value (M. tuberculosis H37Rv [3]; [11]) was 0, the State (M. tuberculosis H37Rv [3]; [12]) was “R” and the “fluorescence reading D + 0” value (M. tuberculosis H37Rv [3]; [12]) was 0. The “fluorescence reading D + 1” value (M. tuberculosis H37Rv [3]; [12]) was 0, the “fluorescence reading D + 5 (first column, c6)” value (M. tuberculosis H37Rv [3]; [12]) was 400 and the “fluorescence reading D + 5 (second column, c7)” value (M. tuberculosis H37Rv [3]; [12]) was 400. The “fluorescence reading D + 6” value (M. tuberculosis H37Rv [3]; [12]) was 400, the “fluorescence reading D + 7 (first column, c9)” value (M. tuberculosis H37Rv [3]; [12]) was 400 and the “fluorescence reading D + 7 (second column, c10)” value (M. tuberculosis H37Rv [3]; [12]) was 400. For the same compound, the “fluorescence reading J + 8” value (M. tuberculosis H37Rv [3]; [12]) was 400 and the inhibition at 3 µM (EthR protein [4]) was 93%.
With [N-]=[N+]=NCC(=O)N1CCC(c2nc(-c3cccs3)no2)CC1 [Compound I-1, 2-azido-1-[4-(3-thiophen-2-yl[1,2,4]oxadiazol-5-yl)piperid-1-yl]ethanone] the Potentiation % (M. bovis BCG) was 2500%, the IC50 (EthR protein [2]) was 1540 nM and the “ETH concentration giving the same growth-inhibiting effect” value (M. tuberculosis H37Rv [5]) was 0.1 μg/ml and 0.6 μM. For the same compound, the inhibition at 3 µM (EthR protein [4]) was 33% and the inhibition at 1 µM (EthR protein [4]; footnote c: DNA 20 RU, EthR 200 nM, compound 1 μM) was 45%.
For CC(C)(C)OC(=O)N1CCC(c2nc(-c3cccs3)no2)CC1 [Compound I-3, t-butyl ester of 4-(3-thiophen-2-yl-1,2,4-oxadiazol-5-yl)piperidine-1-carboxylic acid], the “inhibition of mycobacterial growth around the well” value ([6]; 20 nmol of compound alone (hole A2), three weeks 37° C.) was “does not show any bacterial toxicity”, the “inhibition of mycobacterial growth around the well” value ([6]; 2 μg or 4 μg of ETH + 20 nmol of compound (holes C1 and C2)) was “strongly inhibit the mycobacterial growth” and the “factor of reduction of the effective dose of ETH” value ([6]; combination with ETH, test behind the figure not stated) was “about 10 fold”.
